Entries after “also recorded” stand apart in the source; their conditions may differ. Where two headings read alike, the source gives them in different places. Starred links: 1 amine or outer side, 2 acyl side, 3 side chain; linkers in the order of their positions; H or OH if unused. Non-standard residues stand in square brackets, D forms with d. Residues, ends and D or L forms follow the SMILES beside them. No end group written: not given here. X1 = N=C(N)NC(=O)c1nc(Cl)c(N(CC(=O)[*:2])[*:1])nc1N
Assays:
[1] = test system: glioma cells and primary astrocytes; assay: Cell entry by confocal microscopy; format: in vitro ADME
[2] = test system: [Ca^2+]i in U87 glioma cells; assay: [Ca2+]i in U87 glioma cells loaded with fura-2AM, quantitative fluorescent microscopy; format: cell-based, human; conditions: U87 glioma cells
Protocol: Therefore, the levels of [Ca^2+]i in U87 glioma cells loaded with fura-2AM were measured using quantitative fluorescent microscopy. […] The ATP-dependent calcium regulatory mechanisms within U87 glioma cells containing fura-2 were then examined. […] ATP synthase operates in reverse when milimolar concentrations of calcium are stored by the mitochondrion (Nicholls, Bioenergetics, 3, Academic Press, London, 3rd edition (2002)).
Quantitative fluorescent microscopy of [Ca^2+]i levels. [Ca^2+]i levels can be measured in cells loaded with either fura-2A or fura-2FFAM under the conditions described above.

U87 glioma cells [3] = assay: Glioma cell death, manual cell counts with trypan blue exclusion; conditions: for Glioma Effect: cytotoxic concentration: glioma cells
NHE1 = NHE1 (Homo sapiens, UniProt P19634); assay: NHE1 inhibition: sodium-dependent pHi recovery in BCECF-loaded U87 glial cells after ammonium chloride pre-pulse; format: cell-based; parameters: Sodium-dependent proton extrusion in U87 glial cells and in primary astrocytes is mediated by the type 1 sodium proton exchanger (NHE1); endogenous in cells; host or cells: U87 human glioma cells
Protocol: Intracellular pH Measurements. U87 glial cells were grown on glass coverslips and incubated for 30 minutes at 37° C. with the pH-sensitive dye, 2′,7′-bis(2-carboxyethyl)-5(6)-carboxyfluorescein-AM (BCECF-AM; Molecular Probes, OR). Cells were rinsed with HEPES Ringer buffer twice and maintained at 37° C. for an additional 15 minutes to permit intracellular hydrolysis of the AM ester; trapping BCECF within the cells. Cells on coverslips were placed in a Hitachi F2000 fluorescent spectrophotometer and excited at 440 and 507 nm with fluorescent emissions recorded at 535 nm (Hegde et al., J. Pharmacol. Exp. Ther., 310:67-74 (2004)).
NHE inhibition by compounds 3a and 3c was evaluated using intracellular pH (pHi) measurements in the U87 human glial cell line (Hegde et al., supra). Cells loaded with BCECF were then acidified using the ammonium chloride pre-pulse method (Roos et al., Physiol Rev, 61:296-434 (1981)). The subsequent sodium-dependent recovery of pHi by these cells in the absence of bicarbonate was monitored using a spectrofluorometer. Sodium-dependent proton extrusion in U87 glial cells and in primary astrocytes is mediated by the type 1 sodium proton exchanger (NHE1) (McLean et al., supra; Hegde et al., supra) and was monitored in the presence or absence of compound 3a or 3c.
IC50 drug determinations for NHE1. This method utilizes spectrofluorometric measurements of [H^+]i as described above. The ammonium chloride prepulse method can be used to acidify cells in the presence of HR that is sodium-substituted with NMDG. Perfusion of the acidified cells with HR that contains sodium causes activation of NHE1 that is inhibited in a concentration-dependent fashion as described in McLean et al., supra.

[4] = test system: enkephalinase (endopeptidase 24.11); assay: Enzyme digestion with enkephalinase, LC-MS/ESI; format: in vitro ADME, porcine; conditions: for Conclusion (Peptidase: Enkephalinase): 10 μM conjugate, 10 units enzyme, 25° C., pH 7.4, 24 h; for Cleavage by enkephalinase (release of compound 3a): 24 h incubation, LC-MS
Protocol: (§1) Compound 3b is a C5am-Gly-peptide conjugate containing two D-amino acids, and compound 3c is a C5am-Gly-peptide conjugate coupled to a peptide to generate an analog of opioid peptides that cross the blood brain barrier (BBB). The resultant conjugates (compounds 3a-c) were tested for selective cleavage by the brain peptidase enkephalinase (neutral endopeptidase 24.11; Calbiochem) via incubation for 24 h in the presence or absence of the enzyme, and aliquots from the reaction solutions were then analyzed by LC-MS to identify the C5am-Gly conjugate (compound 3a), starting material, and enzymatic cleavage products (see, Scheme 3). As negative control experiments, the conjugates were analyzed following treatment with (1) bovine pancreatic trypsin (Calbiochem) or (2) the buffer solutions without enzymes.
(§2) Enzyme digestion. Endopeptidase 24.11 (neutral, porcine kidney) and trypsin (bovine pancreas) were purchased from CalBiochem (San Diego, Calif.) and used as received. Enzymatic cleavage experiments using endopeptidase 24.11 were conducted at 25° C. in a pH 7.4 Tris buffer (150 mM NaCl, 50 mM Tris, 0.1% Triton X-100) as recommended by the manufacturer (see also, Barnes et al., J. Neurochem., 64:1826-1832 (1995), Gafford et al., Biochemistry, 22:3265-3271 (1983)). Similarly, trypsin cleavage experiments were conducted at 25° C. in pH 7.4 Dulbecco's phosphate buffered saline (Gibco; Grand Island, N.Y.). The digestion reactions included 10 μM of the amiloride-peptide conjugate and 10 units of enzyme in 250 μL of buffer. Direct aliquots were analyzed by LC-MS/ESI following a 24 hour incubation period.
(§3) Enzyme Digestion Study. Compounds 3a-d were each incubated at 25° C. with 10 units of enkephalinase (endopeptidase 24.11) to determine their susceptibility towards enzymatic cleavage. Reaction aliquots were taken following a 24 hour incubation period and analyzed directly by LC-MS/ESI (Thermo Finnigan LCQ) for the presence of the starting material and the targeted cleavage product, compound 3a (C5am-Gly). […] Since there are no basic amino acid residues in compounds 3a-d, trypsin was employed as a negative control to ensure that any observed cleavage products could be ascribed only to endopeptidase-specific interactions (Jackson, Protein Science, 8:603-613 (1999)).

trypsin = molecular target: T1, trypsin (Bos taurus, UniProt P00760); assay: Enzyme digestion with trypsin (negative control), LC-MS/ESI; format: in vitro ADME, bovine; conditions: for Conclusion (Peptidase: Trypsin): 10 μM conjugate, 10 units enzyme, 25° C., pH 7.4, 24 h
T1 construct: purchased CalBiochem (San Diego, Calif.); host or cells: bovine pancreas
T1 sequence (P00760 24-246): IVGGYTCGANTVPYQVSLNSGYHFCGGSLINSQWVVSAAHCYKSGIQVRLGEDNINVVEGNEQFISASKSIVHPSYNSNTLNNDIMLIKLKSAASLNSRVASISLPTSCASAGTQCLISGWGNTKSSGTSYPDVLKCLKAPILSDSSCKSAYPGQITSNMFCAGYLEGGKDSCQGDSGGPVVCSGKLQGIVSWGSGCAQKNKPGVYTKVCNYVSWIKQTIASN
Protocol: as §1, §2, §3

U87 cells = assay: Intracellular translocation into U87 cells by fluorescence microscopy; conditions: 50 μM; 90 and 180 min; 380 nm excitation, 510 nm emission
Excerpt: Fluorescence Microscopy. […] Excitation light was provided by a xenon arc lamp coupled to the Polychrome IV scanning monochromator (Till Photonics; Grafelfing, Germany) that alternately excites with different wavelengths. Excitation light was delivered by fiber optics to cells through the epifluorescence port of a Nikon E600 microscope coupled to a Nikon Fluor 60× water immersion lens. The detector was an Orca II-ER CCD digital camera (Hamamatsu USA; Bridgewater, N.J.), which is controlled by C-Imaging Simple PCI software (Compix; Cranberry Township, Pa.).
Intracellular emission intensities were collected in regions of interest (ROI) from an average of 4-8 cells/field using Simple PCI imaging software. […] Images were captured as TIFF files (C-imaging Simple PCI software), and light and fluorescent images of the same field were imported in Photoshop 6.0 and vector graphics added using Illustrator 9.0.1 (Adobe; San Jose, Calif.).

U87 glioma cells [5] = assay: Glioma cell proliferation, manual cell counts with trypan blue; format: cell-based, human; conditions: glioma cells
Protocol: C(5)-amiloride glycine conjugate (C5am-Gly) inhibits NHE1 in U87 glioma cells and is antiproliferative. […] The inhibitory activity of C5am-Gly against NCX was tested and a systematic log dose screen of C5am-Gly against a panel of glioma cells and primary astrocytes was performed.
Manual cell counts with dye exclusion assays. Identical concentrations of glioma cells can be plated on 60 mm dishes and grown until 50% confluent. Following drug treatments, media containing floating cells can be collected in suspension. Adherent cells can be rinsed in calcium- and magnesium-free phosphate-buffered saline (PBS-CMF) and removed by incubation with 0.25% v/v trypsin for 5 minutes (37° C.). Cell suspensions can be combined with the floating fraction and centrifuged at 350×g for 5 minutes. The resulting pellet (one per dish) can be resuspended in equal volumes of PBS-CMF with 0.4% trypan blue and/or 500 nM Sytox Green. 10 μL aliquots of the suspension can be plated on a hemocytometer, and cells can be counted 5 minutes after staining. Simultaneous staining of cells with trypan (TB) and Sytox Green (SG) can be visualized by switching between visible light and fluorescein green.

NHE1 and NCX = NHE1 and NCX inhibitors from the literature; cited from earlier work

NHE1, sequence (P19634 whole entry): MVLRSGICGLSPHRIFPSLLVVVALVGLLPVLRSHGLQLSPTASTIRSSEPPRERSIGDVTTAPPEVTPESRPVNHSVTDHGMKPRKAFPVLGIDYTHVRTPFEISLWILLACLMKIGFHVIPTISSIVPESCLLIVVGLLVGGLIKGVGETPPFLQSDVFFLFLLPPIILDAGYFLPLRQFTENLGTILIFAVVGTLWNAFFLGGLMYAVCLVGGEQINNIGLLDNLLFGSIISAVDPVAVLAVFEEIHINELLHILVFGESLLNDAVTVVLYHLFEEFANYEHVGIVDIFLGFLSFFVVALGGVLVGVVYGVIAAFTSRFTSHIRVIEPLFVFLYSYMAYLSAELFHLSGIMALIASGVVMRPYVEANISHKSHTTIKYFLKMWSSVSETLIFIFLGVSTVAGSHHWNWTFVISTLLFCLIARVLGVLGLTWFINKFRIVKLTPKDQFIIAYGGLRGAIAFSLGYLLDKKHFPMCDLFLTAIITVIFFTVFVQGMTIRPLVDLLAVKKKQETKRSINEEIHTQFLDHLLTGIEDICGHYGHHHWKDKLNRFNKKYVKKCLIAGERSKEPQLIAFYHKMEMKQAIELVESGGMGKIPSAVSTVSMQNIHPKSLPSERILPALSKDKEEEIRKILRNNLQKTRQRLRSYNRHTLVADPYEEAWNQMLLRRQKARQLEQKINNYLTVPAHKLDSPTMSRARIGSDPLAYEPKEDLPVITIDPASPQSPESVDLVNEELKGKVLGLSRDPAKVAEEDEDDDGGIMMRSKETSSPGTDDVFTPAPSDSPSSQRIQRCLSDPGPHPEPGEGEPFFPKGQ

For N=C(NC(=O)CN)NC(=O)c1nc(Cl)c(N)nc1N [C2am-Gly], the “Cell entry by confocal microscopy” value [1] was “not visualized entering”, the “Effect on [Ca2+]i” value [2] was “increased” and the “Potency of killing glioma cells relative to amiloride” value (U87 glioma cells [3]) was “greater than 50 times”. The “Concentration that killed U87 glioma cells” value (U87 glioma cells [3]; U87 glioma cells, C2am-Gly within 24 h) was no more than 10 µM and the “Glioma Effect: cytotoxic concentration” value (U87 glioma cells [3]) was “≦10 μM cytotoxic”.

In the case of CC(C)C[C@H](NC(=O)[C@H](Cc1ccccc1)NC(=O)CNC(=O)CNC(=O)CNC(=O)CNc1nc(N)c(C(=O)NC(=N)N)nc1Cl)C(=O)O [Compound 3c, C5am-Gly-Gly-Gly-Gly-Phe-Leu-OH] (H-[X1]GGGFL-OH), the IC50 (NHE1; U87 glial cells, sodium-dependent pHi recovery without bicarbonate, read-out: IC50 (μM) +/− SD (NHE inhibition)) is reported as greater than 100 µM, the “Conclusion (Peptidase: Enkephalinase)” value [4] is reported as “Enkephalinase-mediated” and the “Cleavage by enkephalinase (release of compound 3a)” value [4] is reported as “selectively cleaved; also recorded: released compound 3a; also recorded: complete digestion”. For the same compound, the “Conclusion (Peptidase: Trypsin)” value (trypsin) was “Trypsin-mediated cleavage” and the “Cleavage by trypsin (release of compound 3a)” value (trypsin; 24 h incubation, LC-MS) was “did not generate C5am-Gly; also recorded: did not release compound 3a”.

With CCN(c1nc(N)c(C(=O)NC(=N)N)nc1Cl)C(C)C [EIPA, ethylisopropylamiloride] the “Cell entry by confocal microscopy” value ([1]; C2am-Gly after 90-240 minutes) was “Rapid cell permeation”, the “Intracellular accumulation in U87 cells” value (U87 cells) was “intracellular accumulation; also recorded: rapid cell permeation” and the “Reversal of NHE1 inhibition after removal of compound” value (NHE1; U87 cells) was “slow and incomplete recovery”.

In the case of CS(=O)(=O)O.CS(=O)(=O)c1cc(C(=O)N=C(N)N)ccc1N1CCCCC1 [HOE694], the “Effect on [Ca2+]i” value [2] is reported as “did not alter”.

For C[C@H](CCC(=O)O)C[C@H](C)C[C@H](C)C(=O)/C=C(\O)[C@H](C)C[C@H](C)C/C=C/[C@@H](C)[C@@H](O)[C@@H](C)[C@@H](O)C[C@@H]1CC[C@@](C)([C@H]2CC[C@@](C)([C@@H](C)O)O2)O1 [Ionomycin], the “Time to kill glioma cells” value (U87 glioma cells [3]) was 90 to 180 min.

With N=C(N)SCCc1ccc(OCc2ccc([N+](=O)[O-])cc2)cc1 [KB-R7943] the “Glioma Effect: antiproliferative concentration” value (U87 glioma cells [5]) was “not antiproliferative”, the “Effect of pretreatment on [Ca2+]i after calcium release from mitochondrial stores” value ([2]; FCCP or oligomycin) was “did not cause a persistent increase” and the “Glioma Effect: cytotoxic concentration” value (U87 glioma cells [3]) was “not cytotoxic”. For the same compound, the “Cytotoxicity to glioma cells” value (U87 glioma cells [3]; manual cell counts, trypan blue cell exclusion assay) was “non-toxic” and the “Rel. Activity” value (NHE1 and NCX) was “NCX > NHE (blocks Ca^2+ influx)”.

For CCOc1ccc(Oc2ccc(OCc3cc(F)ccc3F)cc2)c(N)c1 [SEA0400], the “Rel. Activity” value (NHE1 and NCX) is listed as “NCX only no NHE activity (Ca^2+ influx mode > Ca^2+ efflux mode)”.

With CC[C@H]1/C=C/C=C/C[C@@H](C)[C@H](O)[C@@](C)(O)C(=O)[C@@H](C)[C@H](O)[C@@H](C)C(=O)[C@@H](C)[C@H](O)[C@@H](C)/C=C/C(=O)O[C@@H]2[C@H](C)[C@H](CC1)O[C@]1(CC[C@H](C)[C@H](C[C@@H](C)O)O1)[C@H]2C [oligomycin] the “[Ca2+]i transients” value ([2]; F0F1ATPase inhibition) was greater than 800 nM.

For C[C@@H]1O[C@@H](O[C@H]2C[C@@H](O)[C@]3(CO)[C@H]4[C@H](O)C[C@]5(C)[C@@H](C6=CC(=O)OC6)CC[C@]5(O)[C@@H]4CC[C@]3(O)C2)[C@H](O)[C@H](O)[C@H]1O [oubain], the “Effect on [Ca2+]i” value [2] was “did not demonstrably alter”.

For C/C=C(/C)C(=O)O[C@H]1C(C)=C2[C@H]([C@@H]1OC(=O)CCCCCCC)[C@@](C)(OC(C)=O)C[C@H](OC(=O)CCC)[C@@]1(O)[C@H]2OC(=O)[C@@]1(C)O [thapsigargin], the “Effect on [Ca2+]i” value [2] was “modest and transient increase”.

In the case of “Compound 3d: C(5)-amiloride peptide conjugate prepared according to Scheme 1 with peptide sequence Gly-Gly-Gly-Phe-Leu (GGGFL; not fully specified (N-terminus); printed as Gly-Gly-Gly-Phe-Leu; also: C(5)-amiloride conjugate)”, the “Conclusion (Peptidase: Enkephalinase)” value [4] is reported as “Enkephalinase resistant”, the “Cleavage by enkephalinase (release of compound 3a)” value [4] is reported as “did not liberate compound 3a” and the “Conclusion (Peptidase: Trypsin)” value (trypsin) is reported as “Trypsin resistant”.
